Where only a bound is given, the exact number is not on record here.

Test [1] has as its system primary human T-cells. The test can be described thus: IL2 secretion measurements (24 h, CD3-stimulated T-cells, PBS counter screen). Format: cell-based. The following applies: for Emax IL2 (% activation): CD3 condition, normalised to DMSO (neutral) and 20 μM reference compound A1 = 100%; for EC50: Homo sapiens, T-cell, CD3-stimulated primary human T-cells, IL2 secretion, fitted sigmoidal curve, read-out: Tcell IL2 CD3 EC50. In a few lines: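 Expanded primary human T-cells (100k/well) were plated on anti-CD3-coated or PBS-only plates with compound in a 5–6 point dose response (top 20 or 10 μM final, 3.333-fold, 0.2% DMSO). IL-2 in 24 h supernatants was quantified by ProQuantum immunoassay or ELISA. Values were normalized to DMSO and 20 μM reference compound A1 (100%), giving EC50 and Emax.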
A general note: Counterscreens check selectivity or assay interference.

The test system of test [2] is primary human T-cells. Put plainly: Proliferation assay (5 days, CellTiter-Glo, CD3-stimulated T-cells). The class given is cell-based. The following applies: for Emax proliferation (% activation): CD3 condition, normalised to DMSO (neutral) and 20 μM reference compound A1 = 100%; for EC50: Homo sapiens, T-cell, 120 h, CD3-stimulated primary human T-cells, 5 days, CellTiter-Glo, fitted sigmoidal curve, read-out: Tcell Proliferation CD3 EC50. In a few lines: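 Expanded primary human T-cells, 100 k cells/well, were stimulated with plate-coated CD3 antibody (donor-titrated) and given compound in a 5 or 6 pt dose response from 20 μM or 10 μM final top, 0.2% DMSO final. ATP was read by CellTiter-Glo after 5 days. EC50 and Emax were reported as % of 20 μM reference compound A1.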

Turning to `N[C@H]1CS(=O)(=O)c2ccc(-c3nnc(C4(N)CCCCC4)o3)cc2N(Cc2ccc(-c3ccc(C(F)(F)F)cc3)cc2)C1=O` [Example 42, (3R)-3-amino-7-[5-(1-aminocyclohexyl)-1,3,4-oxadiazol-2-yl]-1,1-dioxo-5-[[4-[4-(trifluoromethyl)phenyl]phenyl]methyl]-2,3-dihydro-1λ^6,5-benzothiazepin-4-one], in test [1], the “Emax IL2 (% activation)” value was determined as 128 % activation and the EC50 turned out to be 1390 nM. Moreover, in test [2], the “Emax proliferation (% activation)” value turned out to be 66 % activation and the EC50 is 123 nM.
The like results for `CC(C)(C#N)c1nnc(-c2ccc3c(c2)N(Cc2ccc(-c4ncc(OC(F)(F)F)cn4)cc2)C(=O)[C@@H](N)CS3(=O)=O)o1` [Example 117] were, in that order, 114 % activation, 587 nM, 136 % activation and 174 nM.
In the case of `CC(C)(C#N)c1nnc(-c2ccc3c(c2)N(Cc2ccc(-c4cc(C(F)(F)F)ccn4)cc2)C(=O)[C@@H](N)CS3(=O)=O)o1` [Example 116, 2-[5-[(3R)-3-amino-1,1,4-trioxo-5-[[4-[4-(trifluoromethyl)-2-pyridyl]phenyl]methyl]-2,3-dihydro-1λ^6,5-benzothiazepin-7-yl]-1,3,4-oxadiazol-2-yl]-2-methyl-propanenitrile], in test [1], the “Emax IL2 (% activation)” value is recorded as 87 % activation and the EC50 was 1030 nM. Moreover, in test [2], the “Emax proliferation (% activation)” value came to 97 % activation and the EC50 is 439 nM.
The corresponding values for `COc1ccc(-c2ccc(CN3C(=O)[C@@H](N)CS(=O)(=O)c4ccc(-c5nnc(C6(F)CCCN(C)C6)o5)cc43)cc2)cc1` (stereo partly drawn) [Example 50, (3R)-3-amino-7-[5-(3-fluoro-1-methyl-3-piperidyl)-1,3,4-oxadiazol-2-yl]-5-[[4-(4-methoxyphenyl)phenyl]methyl]-1,1-dioxo-2,3-dihydro-1λ^6,5-benzothiazepin-4-one] are 119 % activation, 3600 nM, 219 % activation and 1040 nM.
With `CC(C)(C#N)c1nnc(-c2ccc3c(c2)N(Cc2ccc(-c4cnc(OC(F)(F)F)cn4)cc2)C(=O)[C@@H](N)CS3(=O)=O)o1` [Example 112], in test [1], the “Emax IL2 (% activation)” value is on record as 139 % activation and the EC50 amounted to 832 nM. In test [2], the “Emax proliferation (% activation)” value amounted to 116 % activation and the EC50 is 292 nM.
Consider `N[C@H]1CS(=O)(=O)c2ccc(-c3nnc(C(F)C(F)(F)F)o3)cc2N(Cc2ccc(-c3noc(C4CC4)n3)cc2)C1=O` (stereo partly drawn) [Example 168, (3R)-3-amino-5-[[4-(5-cyclopropyl-1,2,4-oxadiazol-3-yl)phenyl]methyl]-1,1-dioxo-7-[5-(1,2,2,2-tetrafluoroethyl)-1,3,4-oxadiazol-2-yl]-2,3-dihydro-1λ^6,5-benzothiazepin-4-one], for which, in test [1], the “Emax IL2 (% activation)” value came to 67 % activation and the EC50 was 4870 nM. Besides, in test [2], the “Emax proliferation (% activation)” value is given as 62 % activation and the EC50 is 2620 nM.
Regarding `N[C@H]1CS(=O)(=O)c2cc(F)c(-c3noc(N4CCOC(F)(F)C4)n3)cc2N(Cc2ccc(-c3ccc(C(F)(F)F)cc3)nc2)C1=O` [Example 13, (3R)-3-amino-7-[5-(2,2-difluoromorpholin-4-yl)-1,2,4-oxadiazol-3-yl]-8-fluoro-1,1-dioxo-5-[[6-[4-(trifluoromethyl)phenyl]-3-pyridyl]methyl]-2,3-dihydro-1λ^6,5-benzothiazepin-4-one], in test [1], the “Emax IL2 (% activation)” value worked out at 26 % activation and the EC50 was greater than 10000 nM. In test [2], the “Emax proliferation (% activation)” value was 84 % activation and the EC50 was 1080 nM.
For the molecule `CC(C)(C#N)c1nnc(-c2ccc3c(c2)N(Cc2ccc(-c4nc(C(F)(F)F)co4)cc2)C(=O)[C@@H](N)CS3(=O)=O)o1` [Example 123, 2-[5-[(3R)-3-amino-1,1,4-trioxo-5-[[4-[4-(trifluoromethyl)oxazol-2-yl]phenyl]methyl]-2,3-dihydro-1λ^6,5-benzothiazepin-7-yl]-1,3,4-oxadiazol-2-yl]-2-methyl-propanenitrile], in test [1], the “Emax IL2 (% activation)” value came out at 144 % activation and the EC50 is 1250 nM. In addition, in test [2], the “Emax proliferation (% activation)” value came out at 103 % activation and the EC50 amounted to 860 nM.
Regarding `N[C@H]1CS(=O)(=O)c2ccc(-c3nnc(N4CCOC(F)(F)C4)o3)cc2N(Cc2ccc(-c3nnc(C(F)(F)F)o3)cc2)C1=O` [Example 80], in test [1], the “Emax IL2 (% activation)” value was found to be 360 % activation and the EC50 was 3540 nM. For the same molecule, in test [2], the “Emax proliferation (% activation)” value was determined as 130 % activation and the EC50 was 402 nM.
Regarding `CC(C)(C#N)c1nnc(-c2cc3c(cc2F)S(=O)(=O)C[C@H](N)C(=O)N3Cc2ccc(-c3ccc(C(F)(F)F)cn3)cc2)o1` [Example 88, 2-[5-[(3R)-3-amino-8-fluoro-1,1,4-trioxo-5-[[4-[5-(trifluoromethyl)-2-pyridyl]phenyl]methyl]-2,3-dihydro-1λ^6,5-benzothiazepin-7-yl]-1,3,4-oxadiazol-2-yl]-2-methyl-propanenitrile], in test [1], the “Emax IL2 (% activation)” value came to 121 % activation and the EC50 came to 264 nM. Besides, in test [2], the “Emax proliferation (% activation)” value stood at 106 % activation and the EC50 is 45.1 nM.
The corresponding values for `CC(C)(C#N)c1nnc(-c2ccc3c(c2)N(Cc2ccc(-c4cnc(C(F)(F)F)nc4)cc2)C(=O)[C@@H](N)CS3(=O)=O)o1` [Example 100] are 100 % activation, 3220 nM, 96 % activation and 1900 nM.
For `CC(C)(C#N)c1nnc(-c2ccc3c(c2)N(Cc2ccc(-c4cc(OC(F)F)ccn4)cc2)C(=O)[C@@H](N)CS3(=O)=O)o1` [Example 110, 2-[5-[(3R)-3-amino-5-[[4-[4-(difluoromethoxy)-2-pyridyl]phenyl]methyl]-1,1,4-trioxo-2,3-dihydro-1λ^6,5-benzothiazepin-7-yl]-1,3,4-oxadiazol-2-yl]-2-methyl-propanenitrile], in test [1], the “Emax IL2 (% activation)” value came out at 85 % activation and the EC50 is 4110 nM. Further, in test [2], the “Emax proliferation (% activation)” value is recorded as 85 % activation and the EC50 is 5780 nM.
Turning to `N[C@H]1CS(=O)(=O)c2cc(F)c(-c3noc(N4CCOC5(CC5)C4)n3)cc2N(Cc2ccc(-c3ccc(C(F)(F)F)cc3)nc2)C1=O` [Example 11, (3R)-3-amino-8-fluoro-7-[5-(4-oxa-7-azaspiro[2.5]octan-7-yl)-1,2,4-oxadiazol-3-yl]-1,1-dioxo-5-[[6-[4-(trifluoromethyl)phenyl]-3-pyridyl]methyl]-2,3-dihydro-1λ^6,5-benzothiazepin-4-one], in test [1], the “Emax IL2 (% activation)” value came out at 64 % activation and the EC50 came to 7700 nM. In addition, in test [2], the “Emax proliferation (% activation)” value stood at 136 % activation and the EC50 was 1870 nM.
The corresponding values for `CC(C)(C)c1nnc(-c2ccc3c(c2)N(Cc2ccc(-c4ncc(C(F)(F)F)o4)cc2)C(=O)[C@@H](N)CS3(=O)=O)o1` [Example 93, (3R)-3-amino-7-(5-tert-butyl-1,3,4-oxadiazol-2-yl)-1,1-dioxo-5-[[4-[5-(trifluoromethyl)oxazol-2-yl]phenyl]methyl]-2,3-dihydro-1λ^6,5-benzothiazepin-4-one] are 279 % activation, 202 nM, 104 % activation and 120 nM.
The like results for `CCOC(F)(c1nnc(-c2ccc3c(c2)N(Cc2ccc(-c4noc(C(F)(F)F)n4)cc2)C(=O)[C@@H](N)CS3(=O)=O)o1)C(F)(F)F` (stereo partly drawn) [Example 64, (3R)-3-amino-7-[5-(1-ethoxy-1,2,2,2-tetrafluoro-ethyl)-1,3,4-oxadiazol-2-yl]-1,1-dioxo-5-[[4-[5-(trifluoromethyl)-1,2,4-oxadiazol-3-yl]phenyl]methyl]-2,3-dihydro-1λ^6,5-benzothiazepin-4-one] were, in that order, 543 % activation, 889 nM, 132 % activation and 20.8 nM.
For the molecule `COc1ccc(-c2ccc(CN3C(=O)[C@@H](N)CS(=O)(=O)c4ccc(-c5nnc(C6(N)CCCCC6)o5)cc43)cc2)cc1` [Example 43, (3R)-3-amino-7-[5-(1-aminocyclohexyl)-1,3,4-oxadiazol-2-yl]-5-[[4-(4-methoxyphenyl)phenyl]methyl]-1,1-dioxo-2,3-dihydro-1λ^6,5-benzothiazepin-4-one], in test [1], the “Emax IL2 (% activation)” value is reported as 89 % activation and the EC50 was 771 nM. In test [2], the “Emax proliferation (% activation)” value is 64 % activation and the EC50 came out at 284 nM.
In the case of `CC(C)(C#N)c1nnc(-c2ccc3c(c2)N(Cc2ccc(-c4ccc(C(F)(F)F)nc4)cc2)C(=O)[C@@H](N)CS3(=O)=O)o1` [Example 113, 2-[5-[(3R)-3-amino-1,1,4-trioxo-5-[[4-[6-(trifluoromethyl)-3-pyridyl]phenyl]methyl]-2,3-dihydro-1λ^6,5-benzothiazepin-7-yl]-1,3,4-oxadiazol-2-yl]-2-methyl-propanenitrile], in test [1], the “Emax IL2 (% activation)” value is recorded as 85 % activation and the EC50 came to 1320 nM. In addition, in test [2], the “Emax proliferation (% activation)” value came to 79 % activation and the EC50 was determined as 1060 nM.

(Values after US20260138976A1 (Hoffmann-La Roche Inc., priority 2022, published 2026).)
